Data published in article PMC6269887, “Novel Substituted Heteroaromatic Piperazine and Piperidine Derivatives as Inhibitors of Human Enterovirus 71 and Coxsackievirus A16” (Molecules, 2013).
Where “and” joins values, the source holds several entries; their conditions need not be identical. Equal entries are not always repeated.

Test system: EV71
Assay: Neutralization test: inhibition of EV71-induced CPE on Vero cells
Format: cell-based, Enterovirus 71 (Shenzhen 98, shzh01-8)
Conditions: CPE on Vero cells, 100 TCID50, Reed-Muench
Method: (§1) The anti-EV71 activity, anti-CVA16 activity, and cytotoxicity of the compounds on the EV71 test strain (Shenzhen 98, shzh01-8) and CVA16 (laboratory viral culture) were evaluated by using cell culture cytopathic effect assays.
(§2) This assay measured the ability of the test compounds to inhibit the CPE induced by EV71 and CVA16 on Vero cells. The 96-well tissue culture plates were seeded with 20,000 Vero cells/mL. The plates were incubated for 24 h at 37 °C. The virus (100 TCID50) mixed with different concentrations of the test compounds was added to the cells, which were incubated at 37 °C for 2 h. After adsorption, the infected cells were overlaid with 50 μL of Dulbecco’s modified Eagle’s medium with 5% fetal bovine serum, and 2% DMSO. […] All assays were performed in triplicate.

Row | IC50 [µM] | SMILES
1 | 4.3 | CC(C)c1ccc(OCCCCCCN2CCN(c3nccs3)CC2)cc1.Cl [Compound 8e, 2-(4-(6-(4-Isopropylphenoxy)hexyl)piperazin-1-yl)thiazole hydrochloride]

Same assay, conditions: Enterovirus A, EV71, Vero, CPE on Vero cells, 100 TCID50, Reed-Muench

Row | IC50 [µM] | SMILES
2 | 3.9 ± 0.1 | CC(C)(C)c1ccc(OCCCCCCN2CCN(c3nccs3)CC2)cc1 [Compound 8f, 2-(4-(6-(4-tert-Butylphenoxy)hexyl)piperazin-1-yl)thiazole]
3 | 21.6 ± 1.4 | Clc1cc(N2CCN(CCOc3ccc(-n4cnnc4)cc3)CC2)c(Cl)nn1 [Compound 9b]
4 | > 31.5 | COC(=O)c1ccc(OCCC2CCN(c3cc(Cl)nnc3Cl)CC2)cc1 [Compound 9d]
5 | 21 ± 1.2 | CCOc1ccc(OCCCCCN2CCN(c3nccs3)CC2)cc1 [Compound 8b, 2-(4-(5-(4-Ethoxyphenoxy)pentyl)piperazin-1-yl)thiazole]
6 | 100 ± 9 | COc1ccc(OCCCCCN2CCN(c3nccs3)CC2)cc1 [Compound 8a, 2-(4-(5-(4-Methoxyphenoxy)pentyl)piperazin-1-yl)thiazole]
7 | 1.2 | CCCCc1ccc(OCCN2CCN(c3cc(Cl)nnc3Cl)CC2)cc1 [Compound 9a]
8 | 4.4 ± 0.3 | CCc1ccc(OCCCCCCN2CCN(c3nccs3)CC2)cc1.Cl [Compound 8d, 2-(4-(6-(4-Ethylphenoxy)hexyl)piperazin-1-yl)thiazole hydrochloride]
9 | 4.28 | CC(C)c1ccc(OCCCCCCN2CCN(c3nccs3)CC2)cc1.Cl [Compound 8e, 2-(4-(6-(4-Isopropylphenoxy)hexyl)piperazin-1-yl)thiazole hydrochloride]
10 | > 31.5 | CCOc1ccc(OCCN2CCN(c3cc(Cl)nnc3Cl)CC2)cc1 [Compound 9c]
11 | 25.4 ± 1.7 | CCOC(=O)c1ccc(OCCC2CCN(c3ccnnc3Cl)CC2)nc1 [Compound 9f]
12 | 4.3 ± 0.1 | CCOc1ccc(OCCCCCCN2CCN(c3nccs3)CC2)cc1.Cl [Compound 8c, 2-(4-(6-(4-Ethoxyphenoxy)hexyl)piperazin-1-yl)thiazole hydrochloride]

Same assay, conditions: selectivity index

Row | SMILES | EV71 SI
13 | CC(C)(C)c1ccc(OCCCCCCN2CCN(c3nccs3)CC2)cc1 [Compound 8f, 2-(4-(6-(4-tert-Butylphenoxy)hexyl)piperazin-1-yl)thiazole] | 4.0
14 | Clc1cc(N2CCN(CCOc3ccc(-n4cnnc4)cc3)CC2)c(Cl)nn1 [Compound 9b] | 8.7
15 | CCOc1ccc(OCCCCCN2CCN(c3nccs3)CC2)cc1 [Compound 8b, 2-(4-(5-(4-Ethoxyphenoxy)pentyl)piperazin-1-yl)thiazole] | 3.2
16 | COc1ccc(OCCCCCN2CCN(c3nccs3)CC2)cc1 [Compound 8a, 2-(4-(5-(4-Methoxyphenoxy)pentyl)piperazin-1-yl)thiazole] | 2.8
17 | CCCCc1ccc(OCCN2CCN(c3cc(Cl)nnc3Cl)CC2)cc1 [Compound 9a] | 16.1
18 | CCc1ccc(OCCCCCCN2CCN(c3nccs3)CC2)cc1.Cl [Compound 8d, 2-(4-(6-(4-Ethylphenoxy)hexyl)piperazin-1-yl)thiazole hydrochloride] | 12.7
19 | CC(C)c1ccc(OCCCCCCN2CCN(c3nccs3)CC2)cc1.Cl [Compound 8e, 2-(4-(6-(4-Isopropylphenoxy)hexyl)piperazin-1-yl)thiazole hydrochloride] | 10.1
20 | CCOC(=O)c1ccc(OCCC2CCN(c3ccnnc3Cl)CC2)nc1 [Compound 9f] | >20.2
21 | CCOc1ccc(OCCCCCCN2CCN(c3nccs3)CC2)cc1.Cl [Compound 8c, 2-(4-(6-(4-Ethoxyphenoxy)hexyl)piperazin-1-yl)thiazole hydrochloride] | 12.7

Test system: not given
Assay: not given
Parameters: method as in PMID 23519203
Conditions: pirodavir; cited from earlier work

Row | SMILES | TC50 [µM]
22 | CCOC(=O)c1ccc(OCCC2CCN(c3ccc(C)nn3)CC2)cc1 [pirodavir] | 31 ± 2.2

Test system: not given
Assay: not given
Conditions: not given

Row | melting point [°C] | SMILES
23 | 30 to 32 | CC(C)(C)c1ccc(OCCCCCCN2CCN(c3nccs3)CC2)cc1 [Compound 8f, 2-(4-(6-(4-tert-Butylphenoxy)hexyl)piperazin-1-yl)thiazole]
24 | 79 to 81 | CCOc1ccc(OCCCCCN2CCN(c3nccs3)CC2)cc1 [Compound 8b, 2-(4-(5-(4-Ethoxyphenoxy)pentyl)piperazin-1-yl)thiazole]
25 | 240 to 242 | CCc1ccc(OCCCCCCN2CCN(c3nccs3)CC2)cc1.Cl [Compound 8d, 2-(4-(6-(4-Ethylphenoxy)hexyl)piperazin-1-yl)thiazole hydrochloride]
26 | 135 to 137 | CC(C)c1ccc(OCCCCCCN2CCN(c3nccs3)CC2)cc1.Cl [Compound 8e, 2-(4-(6-(4-Isopropylphenoxy)hexyl)piperazin-1-yl)thiazole hydrochloride]
27 | 222 to 224 | CCOc1ccc(OCCCCCCN2CCN(c3nccs3)CC2)cc1.Cl [Compound 8c, 2-(4-(6-(4-Ethoxyphenoxy)hexyl)piperazin-1-yl)thiazole hydrochloride]

Test system: CVA16
Assay: Neutralization test: inhibition of CVA16-induced CPE on Vero cells
Format: cell-based, Coxsackievirus A16 (laboratory viral culture)
Conditions: CPE on Vero cells, 100 TCID50, Reed-Muench
Method: as §1, §2

Row | IC50 [µM] | SMILES
28 | > 29.7 | Clc1cc(N2CCN(CCOc3ccc(-n4cnnc4)cc3)CC2)c(Cl)nn1 [Compound 9b]
29 | 1.2 ± 0.5 | CC(C)c1ccc(OCCCCCCN2CCN(c3nccs3)CC2)cc1.Cl [Compound 8e, 2-(4-(6-(4-Isopropylphenoxy)hexyl)piperazin-1-yl)thiazole hydrochloride]

Same assay, conditions: Enterovirus A, CVA16, Vero, CPE on Vero cells, 100 TCID50, Reed-Muench

Row | IC50 [µM] | SMILES
30 | 7.8 ± 0.6 | CC(C)(C)c1ccc(OCCCCCCN2CCN(c3nccs3)CC2)cc1 [Compound 8f, 2-(4-(6-(4-tert-Butylphenoxy)hexyl)piperazin-1-yl)thiazole]
31 | > 29.7 | Clc1cc(N2CCN(CCOc3ccc(-n4cnnc4)cc3)CC2)c(Cl)nn1 [Compound 9b]
32 | 22.1 ± 1.1 | COC(=O)c1ccc(OCCC2CCN(c3cc(Cl)nnc3Cl)CC2)cc1 [Compound 9d]
33 | 5.3 ± 0.3 | CCOc1ccc(OCCCCCN2CCN(c3nccs3)CC2)cc1 [Compound 8b, 2-(4-(5-(4-Ethoxyphenoxy)pentyl)piperazin-1-yl)thiazole]
34 | 69.2 ± 5.5 | COc1ccc(OCCCCCN2CCN(c3nccs3)CC2)cc1 [Compound 8a, 2-(4-(5-(4-Methoxyphenoxy)pentyl)piperazin-1-yl)thiazole]
35 | 1.4 ± 0.1 | CCCCc1ccc(OCCN2CCN(c3cc(Cl)nnc3Cl)CC2)cc1 [Compound 9a]
36 | 14 ± 0.5 | CCc1ccc(OCCCCCCN2CCN(c3nccs3)CC2)cc1.Cl [Compound 8d, 2-(4-(6-(4-Ethylphenoxy)hexyl)piperazin-1-yl)thiazole hydrochloride]
37 | 1.24 | CC(C)c1ccc(OCCCCCCN2CCN(c3nccs3)CC2)cc1.Cl [Compound 8e, 2-(4-(6-(4-Isopropylphenoxy)hexyl)piperazin-1-yl)thiazole hydrochloride]
38 | 10.8 ± 0.3 | CCOc1ccc(OCCN2CCN(c3cc(Cl)nnc3Cl)CC2)cc1 [Compound 9c]
39 | 16 ± 0.9 | CCOC(=O)c1ccc(OCCC2CCN(c3ccnnc3Cl)CC2)nc1 [Compound 9f]
40 | 6.8 ± 0.4 | CCOc1ccc(OCCCCCCN2CCN(c3nccs3)CC2)cc1.Cl [Compound 8c, 2-(4-(6-(4-Ethoxyphenoxy)hexyl)piperazin-1-yl)thiazole hydrochloride]

Same assay, conditions: selectivity index

Row | SMILES | CVA16 SI
41 | CC(C)(C)c1ccc(OCCCCCCN2CCN(c3nccs3)CC2)cc1 [Compound 8f, 2-(4-(6-(4-tert-Butylphenoxy)hexyl)piperazin-1-yl)thiazole] | 2.0
42 | COC(=O)c1ccc(OCCC2CCN(c3cc(Cl)nnc3Cl)CC2)cc1 [Compound 9d] | 8.7
43 | CCOc1ccc(OCCCCCN2CCN(c3nccs3)CC2)cc1 [Compound 8b, 2-(4-(5-(4-Ethoxyphenoxy)pentyl)piperazin-1-yl)thiazole] | 12.7
44 | COc1ccc(OCCCCCN2CCN(c3nccs3)CC2)cc1 [Compound 8a, 2-(4-(5-(4-Methoxyphenoxy)pentyl)piperazin-1-yl)thiazole] | 4.0
45 | CCCCc1ccc(OCCN2CCN(c3cc(Cl)nnc3Cl)CC2)cc1 [Compound 9a] | 13.8
46 | CCc1ccc(OCCCCCCN2CCN(c3nccs3)CC2)cc1.Cl [Compound 8d, 2-(4-(6-(4-Ethylphenoxy)hexyl)piperazin-1-yl)thiazole hydrochloride] | 4.0
47 | CC(C)c1ccc(OCCCCCCN2CCN(c3nccs3)CC2)cc1.Cl [Compound 8e, 2-(4-(6-(4-Isopropylphenoxy)hexyl)piperazin-1-yl)thiazole hydrochloride] | 34.8
48 | CCOc1ccc(OCCN2CCN(c3cc(Cl)nnc3Cl)CC2)cc1 [Compound 9c] | 5.8
49 | CCOC(=O)c1ccc(OCCC2CCN(c3ccnnc3Cl)CC2)nc1 [Compound 9f] | >32.0
50 | CCOc1ccc(OCCCCCCN2CCN(c3nccs3)CC2)cc1.Cl [Compound 8c, 2-(4-(6-(4-Ethoxyphenoxy)hexyl)piperazin-1-yl)thiazole hydrochloride] | 8.0

Test system: Vero cells
Assay: Cytotoxicity assay on Vero cells
Format: cell-based
Conditions: not given
Method: The Vero cells treated with the test compounds were incubated at 37 °C for 96 h. After incubation, the cells were harvested and counted.

Row | SMILES | TC0
51 | CC(C)(C)c1ccc(OCCCCCCN2CCN(c3nccs3)CC2)cc1 [Compound 8f, 2-(4-(6-(4-tert-Butylphenoxy)hexyl)piperazin-1-yl)thiazole] | 7.8 ± 0.4 µM
52 | Clc1cc(N2CCN(CCOc3ccc(-n4cnnc4)cc3)CC2)c(Cl)nn1 [Compound 9b] | 29.74 µM and 29.7 ± 2.2 µM
53 | COC(=O)c1ccc(OCCC2CCN(c3cc(Cl)nnc3Cl)CC2)cc1 [Compound 9d] | 30.5 ± 2.0 µM
54 | CCOc1ccc(OCCCCCN2CCN(c3nccs3)CC2)cc1 [Compound 8b, 2-(4-(5-(4-Ethoxyphenoxy)pentyl)piperazin-1-yl)thiazole] | 33.3 ± 3.9 µM
55 | COc1ccc(OCCCCCN2CCN(c3nccs3)CC2)cc1 [Compound 8a, 2-(4-(5-(4-Methoxyphenoxy)pentyl)piperazin-1-yl)thiazole] | 138 ± 9.6 µM
56 | CCCCc1ccc(OCCN2CCN(c3cc(Cl)nnc3Cl)CC2)cc1 [Compound 9a] | 7.7 ± 0.3 µM
57 | CCc1ccc(OCCCCCCN2CCN(c3nccs3)CC2)cc1.Cl [Compound 8d, 2-(4-(6-(4-Ethylphenoxy)hexyl)piperazin-1-yl)thiazole hydrochloride] | 28.0 ± 2.5 µM
58 | CC(C)c1ccc(OCCCCCCN2CCN(c3nccs3)CC2)cc1.Cl [Compound 8e, 2-(4-(6-(4-Isopropylphenoxy)hexyl)piperazin-1-yl)thiazole hydrochloride] | 6.8 ± 0.8 µM
59 | CCOc1ccc(OCCN2CCN(c3cc(Cl)nnc3Cl)CC2)cc1 [Compound 9c] | 31.5 ± 2.1 µM
60 | CCOC(=O)c1ccc(OCCC2CCN(c3ccnnc3Cl)CC2)nc1 [Compound 9f] | 128 ± 9.5 µM
61 | CCOc1ccc(OCCCCCCN2CCN(c3nccs3)CC2)cc1.Cl [Compound 8c, 2-(4-(6-(4-Ethoxyphenoxy)hexyl)piperazin-1-yl)thiazole hydrochloride] | 6.8 ± 0.1 µM

Same assay, conditions: 96 h, concentration reducing cell viability to 50%

Row | SMILES | TC50
62 | CC(C)(C)c1ccc(OCCCCCCN2CCN(c3nccs3)CC2)cc1 [Compound 8f, 2-(4-(6-(4-tert-Butylphenoxy)hexyl)piperazin-1-yl)thiazole] | 15.6 ± 0.3 µM
63 | Clc1cc(N2CCN(CCOc3ccc(-n4cnnc4)cc3)CC2)c(Cl)nn1 [Compound 9b] | 189 ± 17.3 µM
64 | COC(=O)c1ccc(OCCC2CCN(c3cc(Cl)nnc3Cl)CC2)cc1 [Compound 9d] | 193 ± 19.3 µM
65 | CCOc1ccc(OCCCCCN2CCN(c3nccs3)CC2)cc1 [Compound 8b, 2-(4-(5-(4-Ethoxyphenoxy)pentyl)piperazin-1-yl)thiazole] | 66.6 ± 1.0 µM
66 | COc1ccc(OCCCCCN2CCN(c3nccs3)CC2)cc1 [Compound 8a, 2-(4-(5-(4-Methoxyphenoxy)pentyl)piperazin-1-yl)thiazole] | 277 ± 2.2 µM
67 | CCCCc1ccc(OCCN2CCN(c3cc(Cl)nnc3Cl)CC2)cc1 [Compound 9a] | 19.2 ± 0.7 µM
68 | CCc1ccc(OCCCCCCN2CCN(c3nccs3)CC2)cc1.Cl [Compound 8d, 2-(4-(6-(4-Ethylphenoxy)hexyl)piperazin-1-yl)thiazole hydrochloride] | 56.0 ± 3.3 µM
69 | CC(C)c1ccc(OCCCCCCN2CCN(c3nccs3)CC2)cc1.Cl [Compound 8e, 2-(4-(6-(4-Isopropylphenoxy)hexyl)piperazin-1-yl)thiazole hydrochloride] | 43.08 µM and 43.1 ± 4.7 µM
70 | CCOc1ccc(OCCN2CCN(c3cc(Cl)nnc3Cl)CC2)cc1 [Compound 9c] | 62.9 ± 2.4 µM
71 | CCOC(=O)c1ccc(OCCC2CCN(c3ccnnc3Cl)CC2)nc1 [Compound 9f] | >512 µM
72 | CCOc1ccc(OCCCCCCN2CCN(c3nccs3)CC2)cc1.Cl [Compound 8c, 2-(4-(6-(4-Ethoxyphenoxy)hexyl)piperazin-1-yl)thiazole hydrochloride] | 54.1 ± 8.1 µM

Test system: EV71
Assay: not given
Parameters: method as in PMID 23519203
Conditions: pirodavir; cited from earlier work

Row | SMILES | IC50 [µM] | SI
73 | CCOC(=O)c1ccc(OCCC2CCN(c3ccc(C)nn3)CC2)cc1 [pirodavir] | 1.2 ± 0.2 | 25
